{"source": "ChEMBL document CHEMBL6109084", "about": "(Eur J Med Chem, 2025)", "key": {"[1]": {"test_system": "Mus musculus", "test": "Antithrombotic activity in FeCl3-induced carotid arterial thrombosis C57BL/6J mouse model assessed as increase in blood flow velocity at 10 mg/kg, po measured after 0.5 to 4 hrs", "format": "functional, organism-based", "conditions": "time 0.5-4 hrs"}, "[2]": {"test": "Acute toxicity in C57BL/6J mouse assessed as effect on spleen weight at 60 to 100 mg/kg, po measured after 24 hrs", "format": "organism-based", "conditions": "in vivo, dose 60-100 mg/kg"}, "[3]": {"test": "Selectivity index, ratio of IC50 for inhibition of trypsin (unknown origin) using Bz-Ile-Glu(gamma-OR)-Gly-Arg-pNA.HCl as substrate to IC50 for inhibition of human FXIa using p-Glu-Pro-Arg-pNA.HCl as substrate"}, "[4]": {"biological_target": "Trypsin (Homo sapiens, UniProt P07477+P07478+P35030)", "test": "Inhibition of trypsin (unknown origin) using Bz-Ile-Glu(gamma-OR)-Gly-Arg-pNA.HCl as substrate incubated for 30 mins followed by substrate addition and measured after 60 mins by microplate reader analysis", "format": "protein assay"}, "[5]": {"test": "Acute toxicity in C57BL/6J mouse assessed as pathological changes in spleen at 60 to 100 mg/kg, po administered as single dose for 14 days by H and E staining based analysis", "format": "organism-based", "conditions": "in vivo, 336 h, dose 60-100 mg/kg, time 14 day"}, "[6]": {"test_system": "Oryctolagus cuniculus", "test": "Antithrombotic activity in FeCl3-induced carotid arterial thrombosis male New Zealand white rabbits model assessed as reduction in dry thrombus weight at 2 mg/kg, iv preincubated for 30 mins followed by FeCl3 application for 5 and measured after 45 mins relative to control", "format": "functional", "set-up": "scale not given: the % may be the effect or the level left", "conditions": "time 80 min, 1.333 h"}, "[7]": {"test": "Acute toxicity in C57BL/6J mouse assessed as pathological changes in heart at 60 to 100 mg/kg, po administered as single dose for 14 days by H and E staining based analysis", "format": "organism-based", "conditions": "in vivo, 336 h, dose 60-100 mg/kg, time 14 day"}, "[8]": {"test_system": "HepG2", "test": "Cytotoxicity against human HepG2 cells assessed as reduction in cell viability at 1 to 50 uM incubated for 24 hrs by MTT assay", "format": "toxicity, cell-based", "conditions": "hepg2, 24 h, dose 1-50 µM"}, "[9]": {"test": "Acute toxicity in C57BL/6J mouse assessed as effect on heart weight at 60 to 100 mg/kg, po measured after 24 hrs", "format": "organism-based", "conditions": "in vivo, dose 60-100 mg/kg"}, "[10]": {"biological_target": "Chymotrypsin (Homo sapiens, UniProt Q99895+P17538+P40313+Q6GPI1)", "test": "Inhibition of chymotrypsin (unknown origin) using N-Suc-Ala-Ala-Pro-Phe-pNA as substrate incubated for 30 mins followed by substrate addition and measured after 60 mins by microplate reader analysis", "format": "protein assay"}, "[11]": {"test": "Acute toxicity in C57BL/6J mouse assessed as pathological changes in lung at 60 to 100 mg/kg, po administered as single dose for 14 days by H and E staining based analysis", "format": "organism-based", "conditions": "in vivo, 336 h, dose 60-100 mg/kg, time 14 day"}, "[12]": {"test": "Acute toxicity in C57BL/6J mouse assessed as effect on serum alanine transaminase level at 60 to 100 mg/kg, po measured after 24 hrs", "format": "organism-based", "conditions": "in vivo, dose 60-100 mg/kg"}, "[13]": {"test": "Selectivity index, ratio of IC50 for inhibition of FXIIa (unknown origin) using H-D-ProPhe-Arg-pNA.2HCl as substrate to IC50 for inhibition of human FXIa using p-Glu-Pro-Arg-pNA.HCl as substrate"}, "[14]": {"biological_target": "Plasminogen (Homo sapiens, UniProt P00747)", "sequence (P00747 97-580 limits assumed)": "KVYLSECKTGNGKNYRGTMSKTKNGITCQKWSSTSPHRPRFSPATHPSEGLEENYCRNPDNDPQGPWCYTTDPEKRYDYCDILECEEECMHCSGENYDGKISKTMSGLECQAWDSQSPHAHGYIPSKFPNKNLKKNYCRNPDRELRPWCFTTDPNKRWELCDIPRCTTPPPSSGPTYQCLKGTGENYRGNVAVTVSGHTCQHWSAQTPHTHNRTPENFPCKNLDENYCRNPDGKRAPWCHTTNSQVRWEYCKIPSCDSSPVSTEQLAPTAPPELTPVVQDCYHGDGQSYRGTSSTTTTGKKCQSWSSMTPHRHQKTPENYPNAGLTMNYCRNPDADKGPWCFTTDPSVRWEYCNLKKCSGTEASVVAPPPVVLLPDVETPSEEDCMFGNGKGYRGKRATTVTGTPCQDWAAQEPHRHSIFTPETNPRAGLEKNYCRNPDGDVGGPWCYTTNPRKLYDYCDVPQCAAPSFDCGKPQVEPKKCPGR", "sequence (P00747 581-810 limits assumed)": "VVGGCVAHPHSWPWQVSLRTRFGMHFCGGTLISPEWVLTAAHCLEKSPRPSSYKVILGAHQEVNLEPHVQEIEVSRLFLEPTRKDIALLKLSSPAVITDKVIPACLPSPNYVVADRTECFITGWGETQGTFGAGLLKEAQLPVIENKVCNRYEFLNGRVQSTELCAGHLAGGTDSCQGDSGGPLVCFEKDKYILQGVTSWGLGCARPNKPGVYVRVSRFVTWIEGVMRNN", "test": "Inhibition of plasmin (unknown origin) using PyroGlu-Phe-Lys-pNA.HCl as substrate incubated for 30 mins followed by substrate addition and measured after 60 mins by microplate reader analysis"}, "[15]": {"test": "physchem", "conditions": "aqueous medium, pH 7.4", "description": "Aqueous solubility of the compound in DMSO at pH 7.4 incubated for 12 hrs by turbidimetric based UV spectrophotometric analysis"}, "[16]": {"test": "Acute toxicity in C57BL/6J mouse assessed as anaphylaxis response at 60 to 100 mg/kg, po administered as single dose for 14 days", "format": "organism-based", "conditions": "in vivo, 336 h, dose 60-100 mg/kg, time 14 day"}, "[17]": {"biological_target": "T1, Coagulation factor XII (Homo sapiens, UniProt P00748)", "T1 sequence (P00748 whole entry)": "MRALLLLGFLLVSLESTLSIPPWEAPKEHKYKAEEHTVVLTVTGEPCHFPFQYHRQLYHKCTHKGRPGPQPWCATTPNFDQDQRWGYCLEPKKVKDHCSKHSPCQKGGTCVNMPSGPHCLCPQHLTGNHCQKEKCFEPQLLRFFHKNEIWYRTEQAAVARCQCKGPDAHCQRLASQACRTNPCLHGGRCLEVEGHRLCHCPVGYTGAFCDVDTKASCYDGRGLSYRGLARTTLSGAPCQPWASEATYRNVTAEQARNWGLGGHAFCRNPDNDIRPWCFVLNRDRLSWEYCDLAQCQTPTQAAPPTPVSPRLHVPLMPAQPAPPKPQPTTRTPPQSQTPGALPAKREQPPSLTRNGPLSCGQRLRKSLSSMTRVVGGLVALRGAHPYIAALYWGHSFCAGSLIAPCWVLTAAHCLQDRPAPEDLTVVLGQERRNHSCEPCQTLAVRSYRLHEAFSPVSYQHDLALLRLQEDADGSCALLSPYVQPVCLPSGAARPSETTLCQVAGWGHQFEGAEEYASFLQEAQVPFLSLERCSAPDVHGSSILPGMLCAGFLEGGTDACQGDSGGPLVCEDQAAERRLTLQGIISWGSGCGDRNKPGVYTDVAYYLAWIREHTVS", "test": "Inhibition of FXIIa (unknown origin) using H-D-ProPhe-Arg-pNA.2HCl as substrate incubated for 30 mins followed by substrate addition and measured after 60 mins by microplate reader analysis"}, "[18]": {"test_system": "Plasma", "test": "Anticoagulant activity in mouse plasma assessed as prolongation of activated partial thromboplastin time incubated for 3 mins by aPTT reagent based automated coagulometric analysis", "format": "functional", "conditions": "0.05 h"}, "[19]": {"test": "Acute toxicity in C57BL/6J mouse assessed as pathological changes in kidney at 60 to 100 mg/kg, po administered as single dose for 14 days by H and E staining based analysis", "format": "organism-based", "conditions": "in vivo, 336 h, dose 60-100 mg/kg, time 14 day"}, "[20]": {"test_system": "Oryctolagus cuniculus", "test": "Antithrombotic activity in FeCl3-induced carotid arterial thrombosis male New Zealand white rabbits model assessed as reduction in wet thrombus weight at 6 mg/kg, iv preincubated for 30 mins followed by FeCl3 application for 5 mins and measured after 30 mins relative to control", "format": "functional, organism-based", "conditions": "time 65.0 min"}, "[21]": {"test": "Acute toxicity in C57BL/6J mouse assessed as effect on lung weight at 60 to 100 mg/kg, po measured after 24 hrs", "format": "organism-based", "conditions": "in vivo, dose 60-100 mg/kg"}, "[22]": {"test": "Metabolic stability in human liver microsome assessed as half life", "format": "ADME", "conditions": "liver microsomes"}, "[23]": {"test_system": "Mus musculus", "test": "Antithrombotic activity in po dosed FeCl3-induced carotid arterial thrombosis C57BL/6J mouse model assessed as increase in peak velocity measured after 0.5 hrs", "format": "functional, organism-based", "conditions": "dose 5-30 mg/kg"}, "[24]": {"test": "Selectivity index, ratio of IC50 for inhibition of thrombin (unknown origin) using H-D-Phe-Pip-Arg-pNA.2HCl as substrate to IC50 for inhibition of human FXIa using p-Glu-Pro-Arg-pNA.HCl as substrate"}, "[25]": {"test": "Acute toxicity in C57BL/6J mouse assessed as effect on kidney weight at 60 to 100 mg/kg, po measured after 24 hrs", "format": "organism-based", "conditions": "in vivo, dose 60-100 mg/kg"}}, "note": "The source made the active and inactive calls. No cut-off for these calls is given here."}
{"compound": "COc1cn(Cc2cc(-c3ccc(N)nc3F)ccn2)c(=O)cc1-c1cc(Cl)ccc1-n1cnnn1", "values": [{"measurement": "Activity", "setting": "[1]", "value": "Active"}, {"measurement": "Activity", "setting": "[2]", "value": "Non-toxic"}, {"measurement": "Ratio IC50", "setting": "[3]", "value": "> 1000"}, {"measurement": "IC50", "setting": "[4]", "value": "> 1000", "unit": "nM"}, {"measurement": "Activity", "setting": "[5]", "value": "Non-toxic"}, {"measurement": "Activity", "setting": "[6]", "value": ">50", "unit": "%"}, {"measurement": "Activity", "setting": "[7]", "value": "Non-toxic"}, {"measurement": "Activity", "setting": "[8]", "value": "Non-toxic"}, {"measurement": "Activity", "setting": "[9]", "value": "Non-toxic"}, {"measurement": "IC50", "setting": "[10]", "value": "> 1000", "unit": "nM"}, {"measurement": "Activity", "setting": "[11]", "value": "Non-toxic"}, {"measurement": "Activity", "setting": "[12]", "value": "Non-toxic"}, {"measurement": "Ratio IC50", "setting": "[13]", "value": "> 1000"}, {"measurement": "IC50", "setting": "[14]", "value": "> 1000", "unit": "nM"}, {"measurement": "solubility kinetic at 12 h", "setting": "[15]", "value": 122, "unit": "µg/mL"}, {"measurement": "Activity", "setting": "[16]", "value": "Non-toxic"}, {"measurement": "IC50", "setting": "[17]", "value": "> 1000", "unit": "nM"}, {"measurement": "EC1.5", "setting": "[18]", "value": 1.6, "unit": "µM"}, {"measurement": "Activity", "setting": "[19]", "value": "Non-toxic"}, {"measurement": "Activity", "setting": "[20]", "value": "Active; Outperformed Asundexian Reducing Thrombus Weight"}, {"measurement": "Activity", "setting": "[21]", "value": "Non-toxic"}, {"measurement": "half-life", "setting": "[22]", "value": "> 3", "unit": "h"}, {"measurement": "Activity", "setting": "[23]", "value": "Dose-dependent-effect"}, {"measurement": "Ratio IC50", "setting": "[24]", "value": "> 1000"}, {"measurement": "Activity", "setting": "[25]", "value": "Non-toxic"}]}
